Source: patent publication US4826817A, “Amino acid and hydroxyamino acid transporter compounds for therapeutic applications, process and use” (priority 1986, dated 1989)

Tests used:
[1] = Plasma and brain levels of L-tyrosine after intraperitoneal injection to rats; details: rat; for concentration at 0.5 h / concentration at 2 h: ip, 1620 umol/kg
Protocol: Male CD-COBS rats (Charles River, Italy) weighing 200 g were used. The animals housed under standard conditions of light-dark cycle, temperature and humidity with free access to water and food. […] Controls received saline. Rates were killed by decapitation 30 and 120 min. after treatment. Plasma and brain were rapidly removed and kept at -20° C. until assay.

[2] = Plasma and brain levels of L-tyrosine after intravenous injection to rats; type: in vivo, rat (male CD-COBS); details: rat, i.v. 1.62 mmol/kg, Table I
Excerpt: Controls received saline.

| Structure (SMILES) | concentration at 0.5 h ([1]; brain) [ng/g] | concentration at 2 h ([1]; brain) [ng/g] | brain L-tyrosine concentrations (in words) ([1]; i.p. 1.62 mmol/kg, both intervals (30 and 120 min), Table II, L-tyrosine p<0.05, O-L-lysyl-L-tyrosine p<0.01) | concentration at 0.5 h ([1]; plasma) [ng/g] | concentration at 2 h ([1]; plasma) [ng/g] | Plasma L-tyrosine (in words) [2] | brain L-tyrosine concentrations (in words) ([2]; both intervals (30 and 120 min)) |
| --- | --- | --- | --- | --- | --- | --- | --- |
| N[C@@H](Cc1ccc(O)cc1)C(=O)O [L-tyrosine] | 20200 ± 1750 | 21800 ± 1520 | significantly increased | 16900 ± 2060 | 12700 ± 2230 | – | – |
| NCCCC[C@H](N)C(=O)Oc1ccc(C[C@H](N)C(=O)O)cc1 [O-L-lysyl-L-tyrosine] | – | – | – | – | – | significantly raised by only 30 min. after the i.v. dose | significantly increased |
